Patent EP0693481A1, “Prodrugs of 5,5-diphenylhydantoin as antiepileptic and antiarrhythmic agents” (LABORATORIOS RUBIO, S.A., priority 1994, dated 1996)
Counter-ions that a name gives are not always drawn. Like-named read-outs stand apart in the source and are kept apart here. Each block holds one compound with its values, some of them ahead of it.

Experiment: Hydrolisis rate of prodrug in whole rat blood (Franz-type cell, phenytoin measured by HPLC)
Format: in vitro ADME
Settings: for hydrolisis (rate, in words): blood hydrolisis, summary statement on Tables 1 and 2; for metabolised at 0.5 min: time 0.50 min; for metabolised at 15 s: time 0.25 min; for metabolised at 0.25 h: time 15.00 min; for metabolised at 1 h: time 60.00 min; for metabolised at 2.45 h: time 147.00 min; for metabolised at 3.15 h: time 189.00 min; for metabolised at 10 s: time 0.17 min; for metabolised at 20 s: time 0.33 min; for metabolised at 0.025 h: time 1.5 min; for metabolised at 0.8 h: time 48.00 min
Procedure: To study the hydrolisis of prodrugs in blood, Franz-type permeation cells of the company Crown Glass Co. Somerville, N.Y. have been used. The receiving compartment is used which allows for water recirculation using a glass packet in order to keep the system at 37 °C. This compartment is equipped with magnetic stirring.
For the experiment, male Wistar albino rats weighing 200-275 g, bred and selected at the stabularium of the School of Pharmacy of Barcelona, were used. The animals were fasted for 20 hours before starting the trials, but they were given water ad libitum throughout this period. In order to avoid coprophagy, the animals were placed in cages with a broad wire netting bottom.
After anesthesizing the rat, blood was drawn by cardiac puncture. A known amount of blood (10 ml) containing a prodrug concentration of 40 µg/ml was introduced through the lateral tubes of the receiving compartment of Franz cells. The system was kept at 37 °C and stirred magnetically, samples were taken (1 ml) and phenytoin was measured in each of them by HPLC.
The analytical methods were validated prior to estimating phenytoin levels in blood samples.
As in the previous case, three replicates of the tested product were used.

[1] = rat, whole blood, whole rat blood, 37 °C, prodrug 40 µg/ml, mean of replicates, read-out: % HYDROLISIS IN WHOLE BLOOD, m ± s.d.
[2] = rat, whole blood, whole rat blood, 37 °C, prodrug 40 µg/ml, replicate 1, read-out: % HYDROLISIS IN WHOLE BLOOD
[3] = rat, whole blood, whole rat blood, 37 °C, prodrug 40 µg/ml, replicate 2, read-out: % HYDROLISIS IN WHOLE BLOOD
[4] = rat, whole blood, whole rat blood, 37 °C, prodrug 40 µg/ml, replicate 3, read-out: % HYDROLISIS IN WHOLE BLOOD
[5] = rat, whole blood, whole rat blood, 37 °C, mean of replicates, read-out: % HYDROLISIS IN WHOLE BLOOD, m ± s.d.
[6] = rat, whole blood, whole rat blood, 37 °C, replicate 1, read-out: % HYDROLISIS IN WHOLE BLOOD
[7] = rat, whole blood, whole rat blood, 37 °C, replicate 2, read-out: % HYDROLISIS IN WHOLE BLOOD
[8] = rat, whole blood, whole rat blood, 37 °C, replicate 3, read-out: % HYDROLISIS IN WHOLE BLOOD

hydrolisis (rate, in words): much more slower
metabolised at 0.5 min [1]: 8.47 ± 2.79%
metabolised at 0.5 min [2]: 6.37%
metabolised at 0.5 min [3]: 7.41%
metabolised at 0.5 min [4]: 11.7%
metabolised at 15 s [5]: 4.72 ± 1.84%
metabolised at 15 s [6]: 3.42%
metabolised at 15 s [7]: 6.03%
metabolised at 2 min [5]: 15.1 ± 7.72%
metabolised at 2 min [6]: 10.5%
metabolised at 2 min [7]: 10.8%
metabolised at 2 min [8]: 24%
metabolised at 7 min [5]: 33.2 ± 12.3%
metabolised at 7 min [6]: 21.4%
metabolised at 7 min [7]: 32%
metabolised at 7 min [8]: 46%
metabolised at 0.25 h [5]: 59.6 ± 29.8%
metabolised at 0.25 h [6]: 38.9%
metabolised at 0.25 h [7]: 46.1%
metabolised at 0.25 h [8]: 93.8%
metabolised at 1 h [5]: 77.7 ± 4.6%
metabolised at 1 h [6]: 74.5%
metabolised at 1 h [7]: 81%
metabolised at 2.45 h [5]: 81.31 ± 0.47%
metabolised at 2.45 h [6]: 81%
metabolised at 2.45 h [7]: 81.7%
metabolised at 3.15 h [5]: 88.5 ± 13.1%
metabolised at 3.15 h [6]: 79.3%
metabolised at 3.15 h [7]: 97.7%
Compound: O=C1NC(c2ccccc2)(c2ccccc2)C(=O)N1COP(=O)(O)O [XI, disodium salt of 5,5-diphenyl-3-(hydroxymethyl]hydantoin phosphoric ester]

Compound: CN1CCN(CC(=O)OCN2C(=O)NC(c3ccccc3)(c3ccccc3)C2=O)CC1 [IX, 5,5-diphenyl-3-[(4-methylpiperazinyl)-acetoxymethyl]hydantoin dihydrochloride]
hydrolisis (rate, in words): virtually instantaneous
metabolised at 10 s [1]: 100 ± 7.96%
metabolised at 10 s [2]: 99%
metabolised at 10 s [3]: 109%
metabolised at 10 s [4]: 93.1%
metabolised at 20 s [1]: 102 ± 20.8%
metabolised at 20 s [2]: 85.6%
metabolised at 20 s [3]: 95.8%
metabolised at 20 s [4]: 126%
metabolised at 0.5 min [1]: 102 ± 13.2%
metabolised at 0.5 min [2]: 92.7%
metabolised at 0.5 min [3]: 96.5%
metabolised at 0.5 min [4]: 117%
metabolised at 0.025 h [1]: 104 ± 7.14%
metabolised at 0.025 h [2]: 95.8%
metabolised at 0.025 h [3]: 108%
metabolised at 0.025 h [4]: 109%
metabolised at 5 min [1]: 109%
metabolised at 5 min [2]: 105%
metabolised at 5 min [3]: 117%
metabolised at 5 min [4]: 105%
metabolised at 16 min [1]: 115 ± 5.79%
metabolised at 16 min [3]: 119%
metabolised at 16 min [4]: 110%
metabolised at 0.8 h [1]: 100 ± 3.91%
metabolised at 0.8 h [2]: 97.2%
metabolised at 0.8 h [3]: 99.4%
metabolised at 0.8 h [4]: 105%
metabolised at 115 min (rat, whole blood, whole rat blood, 37 °C, prodrug 40 µg/ml, time 115.00 min, replicate 2): 99.7%
